Data taken from patent US12098129B2, “Pharmaceutical composition for treating fibrosis” (LTT BIO-PHARMA CO., LTD., priority 2018, dated 2024).
“Also recorded” adds a separate entry of the source.

Experiments:
LL29 cells [1] = experiment: TGF-β1-dependent activation of lung fibroblast cells: amount of collagen in the medium; assay type: cell-based, human; conditions: LL29 cells treated with drug, then TGF-β1
Experimental: (§1) A549 cells (human alveolar epithelial cells) and LL29 cells (IPF patient-derived lung fibroblast cells) were cultured under conditions of 37° C. and 5% CO2 by using, respectively, Dulbecco's modified Eagle's medium containing 10% FBS and Ham's F-12K (Kaighn's) medium containing 15% FBS.
(§2) As described above, myofibroblast cells played an important role on pulmonary fibrosis in patients with IPF and bleomycin-induced pulmonary fibrosis. Thus, with attention focused on myofibroblast cells, the effects of idebenone and COQ10 were examined. […] Thus, the effects of idebenone and CoQ10 on TGF-β1-dependent activation of lung fibroblast cells (differentiation into myofibroblast cells) were compared. LL29 cells were treated with idebenone or CoQ10, and then treated with TGF-β1, and the amount of collagen in the medium was measured. […] Next, the effect of idebenone was examined by using the levels of α-SMA and mRNA of collagen as indices.

[2] = test system: BLM pulmonary injury model mouse; experiment: BLM pulmonary injury model: α-SMA immunostaining of the lung (myofibroblast cells); assay type: in vivo; conditions: FIGS. 7A and 7B
Experimental: (§3) On day 1, BLM was administered via the airway to a normally reared male ICR mouse to prepare a BLM pulmonary injury model mouse.
A method for immunostaining with α-SMA was carried out by blocking the section with 2.5% goat serum for 10 minutes, and then performing a primary antibody treatment (against α-SMA, 1:100 dilution). At 12 hours later, the section was incubated with Alexa Fluor 594 goat anti-rabbit immunoglobulin G and DAPI for 2 hours. Thereafter, the section was encapsulated by using VECTA SHIELD. The section was photographed by using a microscope (Olympus DP71).
An α-SMA-positive region was quantitatively determined by using Image J software (National Institutes of Health, Bethesda, MD) The number of 8-OHdG-positive cells was quantitatively determined by using Definiens Tissue Studio (trademark) software (CTC Life Science Corporation, Tokyo, Japan).

[3] = test system: BLM pulmonary injury model mouse; experiment: BLM pulmonary injury model: H&E / Masson's trichrome staining, Ashcroft score, hydroxyproline; assay type: in vivo; conditions: for BLM-dependent pulmonary injuries: once a day day 10 to day 18, BLM 1 mg/kg, pirfenidone 200 mg/kg, nintedanib 30 mg/kg, tolperisone 5 mg/kg
LL29 cells [4] = experiment: TGF-β1-dependent activation of lung fibroblast cells: α-SMA and Col1a1 mRNA by real-time RT-PCR; assay type: cell-based, human
Experimental: Total RNA of cells was extracted by using RNeasy kit (Qiagen). 2.5 μg of total RNA was subjected to reverse transcription reaction in accordance with the protocol from Takara Bio Inc by using a first-strand cDNA synthesis kit (Takara Bio Inc). The synthesized cDNA was analyzed with a CFX96 (trademark) real time system by using SsoFast EvaGreen Supermix. For equalizing the total RNA amounts in the reactions, a glyceraldehyde-3-phosphate dehydrogenase (GAPDH) gene was used as an internal standard.
as §1, §2

[5] = test system: BLM pulmonary injury model mouse; experiment: BLM pulmonary injury model: lung function (elastance, FVC) with ventilator for mice; assay type: in vivo
Experimental: as §3
The lung function was measured in accordance with previous literature by using a computer-controlled ventilator for small animals (FlexiVent; SCIREQ, Montreal, Canada). A metal tube (with an outer diameter of 1.27 mm and an inner diameter of 0.84 mm) was inserted by 8 mm into a mouse anesthetized with chloral hydrate (500 mg/kg), and the mouse was caused to breathe mechanically at a rate of 150 breaths/min with a tidal volume of 8.7 ml/kg and a positive end-expiratory pressure ventilation of 2-3 cm H2O.
The total respiratory elastance and the tissue elastance were measured by the snap shot and the forced oscillation technique, respectively. The forced vital capacity was measured in accordance with Chest 142, 1011-1019 (2012) by using the computer-controlled ventilator for small animals and a negative pressure reservoir (SCIREQ, Montreal, Canada). All the data was analyzed by using FlexiVent software (version 5.3; SCIREQ, Montreal, Canada).

[6] = test system: LL29 cells (IPF patient-derived lung fibroblast cells); experiment: MTT cell viability of lung fibroblast cells compared with alveolar epithelial cells; assay type: cell-based, human; conditions: for fibroblast cell-selective decrease in cell viability / cell death (LL29 versus A549): LL29 versus A549 cells, survived cell number; for difference in IC50 (concentration required to decrease the cell viability by 50%) between LL29 and A549 cells: screening of existing approved drugs, MTT, 24 hours, IC50 for LL29 lower than for A549
Experimental: as §1
(§4) The number of living cells was measured by an MTT method or trypan blue staining using Countess (trademark) Automated Cell Counter (Invitrogen, Carlsbad, CA). For evaluation of cell death, LDH activity in the medium was measured in accordance with the protocol of the assay kit.
For a specific method, IPF patient-derived lung fibroblast cells (LL29 cells) and human alveolar epithelial cells (A549 cells) were treated with existing approved drugs, and the cell viability 24 hours later was evaluated by an MTT method.
As with (b-1) above, IPF patient-derived lung fibroblast cells (LL29 cells) and human alveolar epithelial cells (A549 cells) were treated with existing approved drugs, and the cell viability 24 hours later was evaluated by an MTT method.

LL29 cells [7] = experiment: LDH activity in the medium (cell death), LL29 cells; assay type: cell-based, human; conditions: 150 μM
Experimental: as §1, §4
(§5) More minute doses than the doses used during screening test were applied to examine the cell death inducing action of idebenone and to simultaneously conduct a screening reproducibility experiment.

A549 cells = experiment: Number of living and dead cells by trypan blue staining, A549 cells; assay type: cell-based, human
Experimental: as §1, §4
(§6) Thus, the present inventors measured the number of living cells and the number of dead cells with the aid of trypan blue staining.

[8] = test system: A549 cells (human alveolar epithelial cells); experiment: LDH activity in the medium (cell death), A549 cells; assay type: cell-based; conditions: 150 μM
Experimental: as §1, §4, §5

LL29 cells [9] = experiment: Number of living and dead cells by trypan blue staining, LL29 cells; assay type: cell-based, human
Experimental: as §1, §4, §6

[10] = airway administration, comparison idebenone / CoQ10 (FIGS. 5A to 5C)
[11] = oral, 15 or 50 mg/kg once a day day 10 to day 18
[12] = airway administration, pre-administration (FIG. 3D)
[13] = airway administration, day 10 to day 19 (FIG. 10D)
[14] = oral, once a day day 10 to day 18, pirfenidone 200 mg/kg, nintedanib 30 mg/kg, tolperisone 5 mg/kg

COC1=C(OC)C(=O)C(C/C=C(\C)CC/C=C(\C)CC/C=C(\C)CC/C=C(\C)CC/C=C(\C)CC/C=C(\C)CC/C=C(\C)CC/C=C(\C)CC/C=C(\C)CCC=C(C)C)=C(C)C1=O [CoQ10]
TGF-β1-induced increase in amount of collagen in the medium (LL29 cells [1]): did not suppress such an increase
bleomycin-induced increase in number of α-SMA-positive cells (myofibroblast cells) of the lung [2]: did not exhibit such a suppressing effect
pulmonary injury and fibrosing by bleomycin [3, 10]: suppressed
TGF-β1-induced expression of α-SMA and Col1a1 mRNA (LL29 cells [4]): did not suppress such induction

CCc1ccc(C(=O)C(C)CN2CCCCC2)cc1 (centres unmarked) [eperisone]
BLM-dependent decrease in FVC ([5]; intraperitoneal administration): suppressed
BLM-dependent increase in total respiratory system elastance and tissue elastance ([5]; intraperitoneal administration): suppressed
BLM-dependent decrease in FVC [5, 11]: improved such changes in a concentration-dependent manner
BLM-dependent increase in total respiratory system elastance and tissue elastance [5, 11]: improved such changes in a concentration-dependent manner
BLM-dependent increase in amount of hydroxyproline ([3]; intraperitoneal administration): tendency of suppression
BLM-dependent pulmonary injuries and collagen accumulation ([3]; intraperitoneal administration): suppressed
BLM-dependent pulmonary injuries and collagen accumulation ([3]; oral, 15 or 50 mg/kg once a day day 10 to day 18, BLM 1 mg/kg, day 20): suppressed BLM-dependent pulmonary injuries and collagen accumulation in a concentration-dependent manner
fibroblast cell-selective decrease in cell viability / cell death (LL29 versus A549) [6]: decreased the cell viability of LL29 cells at a concentration lower than a concentration at which the cell viability of A549 cells decreased
TGF-β1-induced expression of α-SMA and Col1a1 mRNA (LL29 cells [4]): suppressed such induction

COC1=C(OC)C(=O)C(CCCCCCCCCCO)=C(C)C1=O [idebenone]
BLM-dependent decrease in FVC [5, 12]: tended to suppress such a decrease
BLM-dependent increase in total respiratory system elastance and tissue elastance [5, 12]: suppressed such an increase
BLM-dependent decrease in respiratory function ([5]; therapeutic: airway administration started 10 days after BLM (FIG. 4D)): markedly suppressed a BLM-dependent decrease in respiratory function
TGF-β1-induced increase in amount of collagen in the medium (LL29 cells [1]): suppressed such an increase
LDH released into the medium (LL29 cells [7]): LDH was released into the medium
bleomycin-induced increase in number of α-SMA-positive cells (myofibroblast cells) of the lung [2]: markedly suppressed such an increase
effect of drug alone on pulmonary fibrosing and the respiratory function ([3]; airway administration, 18.8 mg/kg, alone (without BLM)): did not affect pulmonary fibrosing and the respiratory function
pulmonary injury and fibrosing by bleomycin [3, 10]: suppressed
BLM-dependent increase in Ashcroft score ([3]; airway administration, pre-administration (FIG. 3B)): markedly suppressed such an increase
BLM-dependent increase in amount of hydroxyproline ([3]; airway administration, pre-administration (FIG. 3C)): markedly suppressed such an increase
BLM-dependent pulmonary injuries and collagen accumulation ([3]; airway administration, pre-administration day 1 to day 7 (FIG. 3A)): markedly suppressed such injuries and collagen accumulation
pulmonary injury and fibrosing by bleomycin ([3]; therapeutic effects, comparison idebenone / CoQ10 (FIGS. 6A to 6C)): suppressed
pulmonary injury and fibrosing 20 days after administration of BLM ([3]; therapeutic: airway administration started 10 days after BLM (FIGS. 4A to 4C)): markedly suppressed pulmonary injury and fibrosing
fibroblast cell-selective decrease in cell viability / cell death (LL29 versus A549) [6]: decreased the cell viability of LL29 cells (lung fibroblast cells) at a concentration lower than a concentration at which the cell viability of A549 cells (alveolar epithelial cells) decreased
difference in IC50 (concentration required to decrease the cell viability by 50%) between LL29 and A549 cells [6]: particularly marked difference in value of IC50
concentration at which suppression of cell proliferation started (A549 cells): 175 µM
induction of cell death (A549 cells; examined concentrations): did not induce cell death at examined concentrations
TGF-β1-induced expression of α-SMA and Col1a1 mRNA (LL29 cells [4]): suppressed such induction
LDH released into the medium [8]: little LDH was released
concentration at which induction of cell death started (LL29 cells [9]): 175 µM
concentration at which suppression of proliferation started (LL29 cells [9]): 75 µM

CCc1ccc(C(=O)C(C)CN2CCCC2)cc1 (centres unmarked) [inaperisone]
fibroblast cell-selective decrease in cell viability / cell death (LL29 versus A549) [6]: induced fibroblast cell-selective cell death

C[C@H](CN1CCCC1)C(=O)c1ccc(C(F)(F)F)cc1 [lanperisone]
fibroblast cell-selective decrease in cell viability / cell death (LL29 versus A549) [6]: induced fibroblast cell-selective cell death

COC(=O)c1ccc2c(c1)NC(=O)/C2=C(\Nc1ccc(N(C)C(=O)CN2CCN(C)CC2)cc1)c1ccccc1 [nintedanib]
BLM-dependent pulmonary injuries ([3]; oral, day 20): hardly suppressed BLM-dependent pulmonary injuries
fibroblast cell-selective decrease in cell viability / cell death (LL29 versus A549) [6]: did not induce fibroblast cell-selective cell death; also recorded: hardly induced fibroblast cell-selective cell death

Cc1ccc(=O)n(-c2ccccc2)c1 [pirfenidone]
BLM-dependent pulmonary injuries ([3]; oral, day 20): hardly suppressed BLM-dependent pulmonary injuries
fibroblast cell-selective decrease in cell viability / cell death (LL29 versus A549) [6]: did not induce fibroblast cell-selective cell death; also recorded: hardly induced fibroblast cell-selective cell death

Clc1ccc2nsnc2c1NC1=NCCN1 [tizanidine]
fibroblast cell-selective decrease in cell viability / cell death (LL29 versus A549) [6]: did not exhibit such an effect

Cc1ccc(C(=O)C(C)CN2CCCCC2)cc1 (centres unmarked) [tolperisone]
BLM-dependent decrease in FVC [5, 13]: suppressed such a decrease
BLM-dependent increase in total respiratory system elastance and tissue elastance [5, 13]: tended to suppress such an increase
BLM-dependent decrease in FVC ([5]; intraperitoneal administration): suppressed such a decrease
BLM-dependent increase in total respiratory system elastance and tissue elastance ([5]; intraperitoneal administration): suppressed such an increase
BLM-dependent decrease in FVC ([5]; oral administration (FIG. 11D)): suppressed such a decrease
BLM-dependent increase in total respiratory system elastance and tissue elastance ([5]; oral administration (FIG. 11D)): suppressed such an increase
BLM-dependent decrease in FVC [5, 14]: improved such changes
BLM-dependent increase in total respiratory system elastance and tissue elastance [5, 14]: improved such changes
BLM-dependent increase in amount of hydroxyproline ([3]; airway administration, day 10 to day 19 (FIG. 10C)): hardly suppressed such an increase
BLM-dependent pulmonary injuries and collagen accumulation ([3]; airway administration, day 10 to day 19 (FIGS. 10A and 10B)): slightly suppressed such injuries and collagen accumulation
BLM-dependent increase in amount of hydroxyproline ([3]; intraperitoneal administration): markedly suppressed such an increase
BLM-dependent pulmonary injuries and collagen accumulation ([3]; intraperitoneal administration): suppressed such injuries and collagen accumulation
BLM-dependent increase in amount of hydroxyproline ([3]; oral administration (FIG. 11C)): markedly suppressed such an increase
BLM-dependent pulmonary injuries and collagen accumulation ([3]; oral administration (FIGS. 11A and 11B)): suppressed such injuries and collagen accumulation
BLM-dependent pulmonary injuries ([3]; oral, day 20): markedly improved BLM pulmonary injuries
fibroblast cell-selective decrease in cell viability / cell death (LL29 versus A549) [6]: decreased the cell viability of LL29 cells (lung fibroblast cells) at a concentration lower than a concentration at which the cell viability of A549 cells (alveolar epithelial cells) decreased
difference in IC50 (concentration required to decrease the cell viability by 50%) between LL29 and A549 cells [6]: particularly marked difference in IC50 value
TGF-β1-induced expression of α-SMA and Col1a1 mRNA (LL29 cells [4]): suppressed such induction
